Test results from patent publication US9302999B2, “Substituted triazoles as herbicides” (E. I. DU PONT DE NEMOURS AND COMPANY, priority 2012, dated 2016).

Tests used:
Type in all cases: in vivo
[1] = tested on: foxtail, green (green foxtail, Setaria viridis); experiment: Test C pre-/postemergence: foxtail, green
Text: (§1) Seeds of plant species selected from blackgrass (Alopecurus myosuroides), bromegrass, downy (downy bromegrass, Bromus tectorum), foxtail, green (green foxtail, Setaria viridis), ryegrass, Italian (Italian ryegrass, Lolium multiflorum), winter wheat (Triticum aestivum), wild oat (Avena fatua), galium (catchweed bedstraw, Galium aparine), bermudagrass (Cynodon dactylon), surinam grass (Brachiaria decumbens), cocklebur (common cocklebur, Xanthium strumarium), corn (Zea mays), large crabgrass (Digitaria sanguinalis), woolly cupgrass (Eriochloa villosa), foxtail, giant (giant foxtail, Setaria faberii), goosegrass (Eleusine indica), johnsongrass (Sorghum halepense), kochia (Kochia scoparia), lambsquarters (Chenopodium album), morningglory (Ipomoea coccinea), nightshade (eastern black nightshade, Solanum ptycanthum), nutsedge, yellow (yellow nutsedge, Cyperus esculentus), pigweed (Amaranthus retroflexus), ragweed (common ragweed, Ambrosia elation), soybean (Glycine max), common (oilseed) sunflower (Helianthus annuus), Russian thistle (Salsola kali) and velvetleaf (Abutilon theophrasti) were planted into a blend of loam soil and sand and treated preemergence with test chemicals formulated in a non-phytotoxic solvent mixture which included a surfactant.
(§2) At the same time, plants selected from these crop and weed species and also barley (winter barley, Hordeum vulgare), canarygrass (Phalaris minor), chickweed (common chickweed, Stellaria media) windgrass (Apera spica-venti) and deadnettle (henbit deadnettle, Lamium amplexicaule) were planted in pots containing Redi-Earth® planting medium (Scotts Company, 14111 Scottslawn Road, Marysville, Ohio 43041) comprising spaghnum peat moss, vermiculite, wetting agent and starter nutrients and treated with postemergence applications of test chemicals formulated in the same manner. Plants ranged in height from 2 to 18 cm (1- to 4-leaf stage) for postemergence treatments.
(§3) Treated plants and controls were maintained in a greenhouse for 13 to 15 days, after which time all species were compared to controls and visually evaluated. Plant response ratings, summarized in Table C, are based on a scale of 0 to 100 where 0 is no effect and 100 is complete control. A dash (-) response means no test result.

[2] = tested on: barley (winter barley, Hordeum vulgare); experiment: Test C postemergence: barley
Text: as §2, §3

[3] = tested on: surinam grass (Brachiaria decumbens); experiment: Test C pre-/postemergence: surinam grass
How it was run: (§4)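 Preemergence on seeds in loam/sand, postemergence on 2–18 cm (1–4-leaf) plants in peat-based medium; compounds in non-phytotoxic solvent with surfactant. After 13–15 days in greenhouse, visual rating versus controls, 0 (no effect) to 100 (complete control).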

[4] = tested on: cocklebur (common cocklebur, Xanthium strumarium); experiment: Test C pre-/postemergence: cocklebur
How it was run: as §4

[5] = tested on: canarygrass (Phalaris minor); experiment: Test C postemergence: canarygrass
How it was run: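 Visual 0–100 injury score vs untreated controls (0 none, 100 complete control), taken 13–15 d after treatment. Postemergence spray on potted plants, 2–18 cm, 1–4 leaves; greenhouse.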

[6] = tested on: deadnettle (henbit deadnettle, Lamium amplexicaule); experiment: Test C postemergence: deadnettle
Text: as §2, §3

[7] = tested on: windgrass (Apera spica-venti); experiment: Test C postemergence: windgrass
Text: as §2, §3

[8] = tested on: nightshade (eastern black nightshade, Solanum ptycanthum); experiment: Test C pre-/postemergence: nightshade; details: Preemergence
How it was run: as §4

[9] = tested on: bromegrass, downy (downy bromegrass, Bromus tectorum); experiment: Test C pre-/postemergence: bromegrass, downy
Text: as §1, §2, §3

[10] = tested on: goosegrass (Eleusine indica); experiment: Test C pre-/postemergence: goosegrass
How it was run: as §4

[11] = Postemergence, 62 g ai/ha, scale 0 to 100 (0 no effect, 100 complete control)
[12] = Postemergence, 125 g ai/ha, scale 0 to 100, 0 no effect, 100 complete control
[13] = Postemergence, 250 g ai/ha, scale 0 to 100
[14] = Preemergence, 31 g ai/ha, scale of 0 to 100, 0 is no effect, 100 is complete control
[15] = Preemergence, 62 g ai/ha, scale of 0 to 100, 0 is no effect, 100 is complete control
[16] = Preemergence, 125 g ai/ha, scale 0 to 100, 0 no effect, 100 complete control
[17] = Preemergence, 250 g ai/ha, scale 0 to 100, 0 no effect, 100 complete control
[18] = 31 g ai/ha, scale 0 to 100 (0 no effect, 100 complete control)
[19] = 62 g ai/ha, scale 0 to 100 (0 no effect, 100 complete control)
[20] = 125 g ai/ha, scale 0 to 100, 0 no effect, 100 complete control
[21] = Postemergence, 31 g ai/ha, scale 0 to 100 (0 no effect, 100 complete control)
[22] = Preemergence, 62 g ai/ha, scale 0 to 100, 0 no effect, 100 complete control
[23] = 250 g ai/ha, scale 0 to 100, 0 no effect, 100 complete control
[24] = Postemergence, 250 g ai/ha, scale 0 to 100 (0 no effect, 100 complete control)
[25] = Preemergence, 31 g ai/ha, scale 0 (no effect) to 100 (complete control)

Cc1nn(-c2ccc(C(F)(F)F)cn2)nc1Oc1ccnc(C(F)(F)F)c1 [Compound 23]
98: Plant response rating, Deadnettle ([6]; 250 g ai/ha, scale 0 to 100) | Plant response rating, Nightshade [8, 23]
50: Plant response rating, Foxtail, Green [1, 13] | Plant response rating, Cocklebur [4, 13] | Plant response rating, Nightshade ([8]; 31 g ai/ha, scale of 0 to 100, 0 is no effect, 100 is complete control)
40: Plant response rating, Cocklebur [4, 12]
5: Plant response rating, Barley [2, 18] | Plant response rating, Surinam Grass [3, 21] | Plant response rating, Cocklebur [4, 16] | Plant response rating, Cocklebur [4, 17] | Plant response rating, Canarygrass [5, 18] | Plant response rating, Bromegrass, Downy [9, 21] | Plant response rating, Bromegrass, Downy [9, 11] | Plant response rating, Bromegrass, Downy [9, 12] | Plant response rating, Bromegrass, Downy [9, 13] | Plant response rating, Bromegrass, Downy [9, 16]
90: Plant response rating, Nightshade ([8]; 62 g ai/ha, scale of 0 to 100, 0 is no effect, 100 is complete control)
15: Plant response rating, Barley [2, 19] | Plant response rating, Surinam Grass [3, 13] | Plant response rating, Surinam Grass [3, 14] | Plant response rating, Canarygrass [5, 20] | Plant response rating, Canarygrass ([5]; 250 g ai/ha, scale 0 to 100) | Plant response rating, Windgrass [7, 19] | Plant response rating, Windgrass [7, 20] | Plant response rating, Windgrass ([7]; 250 g ai/ha, scale 0 to 100) | Plant response rating, Goosegrass [10, 12]
10: Plant response rating, Surinam Grass [3, 11] | Plant response rating, Surinam Grass [3, 12] | Plant response rating, Canarygrass [5, 19] | Plant response rating, Windgrass [7, 18] | Plant response rating, Bromegrass, Downy [9, 17] | Plant response rating, Goosegrass [10, 21] | Plant response rating, Goosegrass [10, 11]
95: Plant response rating, Nightshade [8, 20] | Plant response rating, Goosegrass [10, 14]
100: Plant response rating, Foxtail, Green [1, 14] | Plant response rating, Foxtail, Green [1, 15] | Plant response rating, Foxtail, Green [1, 16] | Plant response rating, Foxtail, Green [1, 17] | Plant response rating, Surinam Grass [3, 16] | Plant response rating, Surinam Grass [3, 17] | Plant response rating, Goosegrass [10, 15] | Plant response rating, Goosegrass [10, 16] | Plant response rating, Goosegrass [10, 17]
25: Plant response rating, Cocklebur [4, 21] | Plant response rating, Cocklebur [4, 11]
85: Plant response rating, Deadnettle [6, 20]
60: Plant response rating, Surinam Grass [3, 15]
0: Plant response rating, Cocklebur [4, 14] | Plant response rating, Cocklebur [4, 22] | Plant response rating, Bromegrass, Downy [9, 14] | Plant response rating, Bromegrass, Downy [9, 22]
20: Plant response rating, Barley [2, 20]
80: Plant response rating, Deadnettle [6, 18] | Plant response rating, Deadnettle [6, 19]
45: Plant response rating, Foxtail, Green [1, 12]
30: Plant response rating, Foxtail, Green [1, 11] | Plant response rating, Barley ([2]; 250 g ai/ha, scale 0 to 100) | Plant response rating, Goosegrass [10, 13]

CCOc1nn(-c2ccc(F)cc2)nc1Cc1ccnc(C(F)(F)F)c1 [Compound 196, 4-[[5-ethoxy-2-(4-fluorophenyl)-2H-1,2,3-triazol-4-yl]methyl]-2-(trifluoromethyl)pyridine]
80: Plant response rating, Canarygrass [5, 18] | Plant response rating, Windgrass [7, 18] | Plant response rating, Windgrass [7, 19] | Plant response rating, Bromegrass, Downy [9, 13] | Plant response rating, Goosegrass [10, 12]
5: Plant response rating, Cocklebur [4, 25]
95: Plant response rating, Windgrass [7, 20] | Plant response rating, Windgrass ([7]; 250 g ai/ha, scale 0 to 100 (0 no effect, 100 complete control)) | Plant response rating, Bromegrass, Downy [9, 22]
40: Plant response rating, Barley [2, 19]
100: Plant response rating, Foxtail, Green [1, 21] | Plant response rating, Foxtail, Green [1, 11] | Plant response rating, Foxtail, Green [1, 12] | Plant response rating, Foxtail, Green [1, 24] | Plant response rating, Surinam Grass [3, 16] | Plant response rating, Surinam Grass [3, 17] | Plant response rating, Deadnettle [6, 18] | Plant response rating, Deadnettle [6, 19] | Plant response rating, Deadnettle [6, 20] | Plant response rating, Deadnettle ([6]; 250 g ai/ha, scale 0 to 100) | Plant response rating, Nightshade ([8]; 31 g ai/ha, scale 0 (no effect) to 100 (complete control)) | Plant response rating, Nightshade ([8]; 62 g ai/ha, scale 0 to 100, 0 no effect, 100 complete control) | Plant response rating, Nightshade [8, 20] | Plant response rating, Nightshade [8, 23] | Plant response rating, Bromegrass, Downy [9, 16] | Plant response rating, Bromegrass, Downy [9, 17] | Plant response rating, Goosegrass [10, 25] | Plant response rating, Goosegrass [10, 22] | Plant response rating, Goosegrass [10, 16] | Plant response rating, Goosegrass [10, 17]
70: Plant response rating, Surinam Grass [3, 11] | Plant response rating, Surinam Grass [3, 12] | Plant response rating, Bromegrass, Downy [9, 12]
85: Plant response rating, Goosegrass [10, 24]
75: Plant response rating, Surinam Grass [3, 24] | Plant response rating, Cocklebur [4, 13] | Plant response rating, Cocklebur [4, 17] | Plant response rating, Goosegrass [10, 21] | Plant response rating, Goosegrass [10, 11]
30: Plant response rating, Barley [2, 18]
60: Plant response rating, Cocklebur [4, 11] | Plant response rating, Bromegrass, Downy [9, 25]
90: Plant response rating, Foxtail, Green [1, 25] | Plant response rating, Foxtail, Green [1, 22] | Plant response rating, Foxtail, Green [1, 16] | Plant response rating, Foxtail, Green [1, 17] | Plant response rating, Surinam Grass [3, 25] | Plant response rating, Canarygrass [5, 19] | Plant response rating, Canarygrass [5, 20] | Plant response rating, Canarygrass ([5]; 250 g ai/ha, scale 0 to 100)
50: Plant response rating, Barley ([2]; 250 g ai/ha, scale 0 to 100) | Plant response rating, Bromegrass, Downy [9, 21] | Plant response rating, Bromegrass, Downy [9, 11]
45: Plant response rating, Barley [2, 20] | Plant response rating, Cocklebur [4, 16]
98: Plant response rating, Surinam Grass [3, 22]
55: Plant response rating, Cocklebur [4, 21]
65: Plant response rating, Cocklebur [4, 12]
35: Plant response rating, Surinam Grass [3, 21]
